Results on nine compounds are retold here after patent US10851092B2, “Pyridine compound” (Daiichi Sankyo Company, Limited, priority 2016, dated 2020).

The structures appear in SMILES notation. Like-named read-outs stand apart in the source and are kept apart here.

The subject of data set [1] is thyroid gland cancer cell line TT having RET activating mutation (C634W). The experiment in a line: Cell growth inhibitory activity, thyroid gland cancer cell line TT. It counts as cell-based. Particulars: Homo sapiens, 216 h; TT cells, 9 days, CellTiter-Glo. How it is done:
The cell growth inhibitory activity of the test compound on the thyroid gland cancer cell line TT having RET activating mutation (C634W) (Biochemical and Biophysical Research Communications. 1995 Feb. 27 (207), 1022-1028) was measured.
TT cells were seeded on a 96-well plate at a cell density of 5,000 cells per well, and were then cultured at 37° C. in the presence of 5% CO2 overnight in an F-12K nutrient mixture medium containing 10% FBS. Thereafter, the compound was diluted, and then added to the 96-well plate. As a negative control, dimethyl sulfoxide (hereinafter referred to as DMSO) was added. The obtained mixture was cultured at 37° C. in the presence of 5% CO2 for 9 days, and thereafter, a cell count measuring reagent CellTiter-Glo® Luminescent Cell Viability Assay was added to the culture, followed by stirring the mixture. Thereafter, using a luminescence measurement device Envision (Perkin Elmer), the luminescence intensity was measured. The measurement value of a well to which only the medium had been added was define as a survival rate of 0%, and the measurement value of a well to which DMSO had been added was defined as a survival rate of 100%. The survival rate of the TT cells in the presence of each concentration of the test compound was calculated.

For data set [2], the system named is non-small cell lung cancer cell line LC-2/ad having a CCDC6-RET fusion gene. The experiment in a line: Cell growth inhibitory activity, non-small cell lung cancer cell line LC-2/ad. It counts as cell-based. Particulars: Homo sapiens, 216 h; LC-2/ad cells, 9 days, CellTiter-Glo. On the procedure:
The cell growth inhibitory activity of the test compound on the non-small cell lung cancer cell line LC-2/ad having a CCDC6-RET fusion gene (RIKEN, J Thorac Oncol. 2012 December, 7(12), 1872-6) was measured.
LC-2/ad cells were seeded on a 96-well plate at a cell density of 5,000 cells per well, and then cultured at 37° C. in the presence of 5% CO2 overnight in a medium prepared by mixing RPMI-1640 containing 15% FBS and 25 mM HEPES with Ham's F12 Mixture at a mixing ratio of 1:1. Thereafter, the test compound was diluted, and then added to the 96-well plate. As a negative control, dimethyl sulfoxide (hereinafter referred to as DMSO) was added. The obtained mixture was cultured at 37° C. in the presence of 5% CO2 for 9 days, and thereafter, a cell count measuring reagent CellTiter-Glo® Luminescent Cell Viability Assay (Promega, # G7571) was added to the culture, followed by stirring the mixture. Thereafter, using a luminescence measurement device Envision, the luminescence intensity was measured. The measurement value of a well to which only the medium had been added was define as a survival rate of 0%, and the measurement value of a well to which DMSO had been added was defined as a survival rate of 100%. The survival rate of the LC-2/ad cells in the presence of each concentration of the test compound was calculated.
A general note: Cellular ATP, detected with luciferase, serves as a proxy for viable cell number.

For data set [3], the target named is RET recombinant protein (RET-wild type) (Homo sapiens (Human), UniProt P07949). The experiment in a line: Evaluation of RET kinase inhibiting activity (cell-free system), mobility shift assay. It counts as biochemical. How it is done: (§1) 19 uL of the RET kinase solution was added to each of lines A to P of a 384-well plate, and thereafter, the test compound at each concentration was added to lines C to N, and further, 1 uL of dimethyl sulfoxide (hereinafter referred to as DMSO) was added to each of lines A, B, O and P. Thereafter, the obtained mixtures were each preincubated at room temperature for 20 minutes. Furthermore, a substrate solution A containing ATP (final concentration: 1 mM) and a substrate solution B containing no ATP, both in addition to a reaction buffer and FL-Peptide 22 (PerkinElmer, #760366, final concentration: 1.5 uM) were produced. The substrate solution A was added in an amount of 5 uL to lines B to 0, whereas the substrate solution B was added in an amount of 5 uL to lines A and P. The obtained mixtures were each incubated at 28° C. for 45 minutes. A reaction termination solution (100 mM HEPES (pH 7.4), 0.015% Briji-35, 40 mM EDTA, and 0.1% Coating Reagent 3) was added in an amount of 40 ul to the reaction mixture, so as to terminate the reaction.
RET recombinant protein (RET-wild type), sequence (P07949 29-1114): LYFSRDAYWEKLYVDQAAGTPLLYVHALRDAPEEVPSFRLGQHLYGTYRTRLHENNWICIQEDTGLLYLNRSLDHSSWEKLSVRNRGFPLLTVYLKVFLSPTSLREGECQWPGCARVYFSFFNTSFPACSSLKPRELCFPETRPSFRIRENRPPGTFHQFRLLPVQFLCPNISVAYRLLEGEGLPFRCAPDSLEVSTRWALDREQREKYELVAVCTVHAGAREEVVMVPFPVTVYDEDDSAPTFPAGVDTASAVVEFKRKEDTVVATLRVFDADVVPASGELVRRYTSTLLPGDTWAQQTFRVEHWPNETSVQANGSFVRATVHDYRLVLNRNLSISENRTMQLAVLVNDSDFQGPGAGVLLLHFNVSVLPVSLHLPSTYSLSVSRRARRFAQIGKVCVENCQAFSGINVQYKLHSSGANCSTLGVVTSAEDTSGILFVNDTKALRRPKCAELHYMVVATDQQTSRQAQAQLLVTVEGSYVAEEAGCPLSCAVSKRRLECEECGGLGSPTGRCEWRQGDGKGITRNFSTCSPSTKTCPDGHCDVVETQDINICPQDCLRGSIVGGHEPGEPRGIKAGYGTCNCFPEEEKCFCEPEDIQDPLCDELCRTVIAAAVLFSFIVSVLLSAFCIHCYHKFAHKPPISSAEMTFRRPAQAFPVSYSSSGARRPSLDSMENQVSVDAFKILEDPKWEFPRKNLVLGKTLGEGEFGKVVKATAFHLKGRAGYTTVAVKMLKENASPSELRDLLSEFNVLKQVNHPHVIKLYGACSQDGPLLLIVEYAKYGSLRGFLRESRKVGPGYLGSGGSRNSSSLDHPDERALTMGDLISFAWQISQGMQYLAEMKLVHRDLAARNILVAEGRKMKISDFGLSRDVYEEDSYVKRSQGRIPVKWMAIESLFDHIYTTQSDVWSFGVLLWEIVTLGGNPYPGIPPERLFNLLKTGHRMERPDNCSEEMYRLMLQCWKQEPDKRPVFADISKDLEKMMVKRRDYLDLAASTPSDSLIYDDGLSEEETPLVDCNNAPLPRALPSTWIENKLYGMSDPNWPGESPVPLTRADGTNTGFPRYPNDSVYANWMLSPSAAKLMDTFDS
(§2) Using EZ Reader II (Perkin Elmer), a substrate peptide was separated from a phosphorylated peptide in the reaction solution, and the product ratio (P/(P+S)) calculated from the peak (S) of the substrate peptide and the peak (P) of the phosphorylated peptide was used for evaluation. The inhibition of the test compound having each concentration was obtained by the following formula (automatically calculated using the software of EZ Reader II System). Inhibition (%)=100×(1−Ci/Co) (a) Ci: Conversion rate of a reaction of a test compound with substrate solution A−conversion rate of a reaction of DMSO with substrate solution B Co: Conversion rate of a reaction of DMSO with substrate solution A−conversion rate of a reaction of DMSO with substrate solution B
(§3) Based on the inhibition rates of the test compound at 12 different concentrations according to the formula (a), a 4-parameter logistic regression curve was drawn. At this time, the 4-parameter logistic regression equation is expressed as follows. Inhibition (%)=Bottom+(Top−Bottom)/(1+(X/IC50)^^slope) (b) Top: Upward asymptote Slope: Slope parameter IC50: Value X of (Top+Bottom)/2 Bottom: Downward asymptote X: Concentration of test compound
(§4) First, any given initial values are inputted into Top, Slope, IC50, Bottom (Top=100, Slope=−1, IC50=approx. IC50, and Bottom=0), so that a regression curve was drawn. Subsequently, a least-squares method was executed to the sum of squares of a difference between the measured value and the estimated value obtained from formula (b) to calculate the coefficient of the 4-parameter logistic regression equation, so as to calculate IC50.

In data set [4] the target is RET-Gatekeeper mutation (V804L) recombinant protein (Homo sapiens (Human), UniProt P07949, V804L). The experiment in a line: Evaluation of RET kinase inhibiting activity (cell-free system), gatekeeper mutant. It counts as biochemical. Particulars: non-cell system; read-out: Biochemical assay (non-cell system) IC50 (nM) RET-V804L. How it is done:
as §1, §2, §3, §4

Data set [5] relates to phosphorylated RET in Ba/F3-RET-V804M tumors. The experiment in a line: One shot PKPD analysis, Ba/F3-RET-V804M tumors. It counts as in vivo, mice.
Data set [6] has as its target KDR kinase (Homo sapiens (Human), UniProt P35968). The experiment in a line: Evaluation of KDR kinase inhibiting activity (cell system), HUVEC, AlphaLISA. It counts as cell-based. On the procedure:
HUVEC cells were seeded on a plate at a cell density of 1500 cells per well, and then cultured overnight. The test compound (10 uM, 2.5 uM, 625 nM, 156 nM, […], 10 nM, 2.5 nM, or 0.6 nM) was added to each well, followed by culturing the obtained mixture for 2 hours. Thereafter, VEGF165 (Peprotech, #100-20) was added to the culture at a final concentration of 50 ng/ml, and the obtained mixture was then reacted at 37° C. for 5 minutes. Thereafter, the resulting cells were lysed with 50 ul of Lysis buffer included in AlphaLISA SureFire Ultra (Perkin Elmer, # ALSU-PVGFR-A500), and Acceptor beads and Donor beads were then added to 10 ul of the cell lysate according to the instruction manual included with the aforementioned kit. The mixture thus obtained was reacted at room temperature overnight, and thereafter, a KDR kinase inhibiting activity rate was measured using Envision (Perkin Elmer).
The value for a well to which only the Lysis buffer had been added was subtracted as a background from all of the values. Thereafter, the value for a well to which […] had been added and the test compound had not been added was defined as a KDR kinase activity of 100%, and the obtained value was corrected.
(Alpha assays give light when donor and acceptor beads are brought close together.)

For data set [7], the target named is RET-wild type (Homo sapiens (Human), UniProt P07949). The experiment in a line: Evaluation of RET kinase inhibiting activity (cell system), Ba/F3 cells overexpressing Myc tagged RET. It counts as cell-based. Particulars: Form: Free, read-out: IC50 (nM) RET. How it is done: Thereafter, 1 mL of Cell Lysis Buffer (Cell signaling technology, #9803), a single tablet of Phosphatase inhibitor (Roche, #04906837001), and a single tablet of Protease inhibitor (Roche, #0469312400) were added to 9 mL of MilliQ, and 20 ul of the obtained mixture was then added to each well. The mixture thus obtained was placed on ice for 20 minutes, so that the cells were lysed. A 5-ul aliquot was taken from the cell lysate, and thereafter, 64 nl of Myc antibody (Cell signaling technology, #3946) and Streptavidin Donor beads in an equal amount of 102 nl of P-Tyr-100 Acceptor beads included in the Alpha Screen Phosphotyrosine (P-Tyr-100) assay kit (Perkin Elmer, #6760620C) were added to the aliquot in accordance with the instruction manual included with the aforementioned assay kit. The obtained mixture was reacted at room temperature overnight, and a RET kinase inhibiting activity rate was then measured using Envision.
RET-wild type, sequence (P07949 29-1114): as above

[8] abbreviates: cell system, comparator compounds, Form: Free, read-out: IC50 (nM) KDR.
Setting [9] is: cell system, Form: Mesylate, read-out: IC50 (nM) KDR.

KDR kinase, sequence (P35968 20-1356): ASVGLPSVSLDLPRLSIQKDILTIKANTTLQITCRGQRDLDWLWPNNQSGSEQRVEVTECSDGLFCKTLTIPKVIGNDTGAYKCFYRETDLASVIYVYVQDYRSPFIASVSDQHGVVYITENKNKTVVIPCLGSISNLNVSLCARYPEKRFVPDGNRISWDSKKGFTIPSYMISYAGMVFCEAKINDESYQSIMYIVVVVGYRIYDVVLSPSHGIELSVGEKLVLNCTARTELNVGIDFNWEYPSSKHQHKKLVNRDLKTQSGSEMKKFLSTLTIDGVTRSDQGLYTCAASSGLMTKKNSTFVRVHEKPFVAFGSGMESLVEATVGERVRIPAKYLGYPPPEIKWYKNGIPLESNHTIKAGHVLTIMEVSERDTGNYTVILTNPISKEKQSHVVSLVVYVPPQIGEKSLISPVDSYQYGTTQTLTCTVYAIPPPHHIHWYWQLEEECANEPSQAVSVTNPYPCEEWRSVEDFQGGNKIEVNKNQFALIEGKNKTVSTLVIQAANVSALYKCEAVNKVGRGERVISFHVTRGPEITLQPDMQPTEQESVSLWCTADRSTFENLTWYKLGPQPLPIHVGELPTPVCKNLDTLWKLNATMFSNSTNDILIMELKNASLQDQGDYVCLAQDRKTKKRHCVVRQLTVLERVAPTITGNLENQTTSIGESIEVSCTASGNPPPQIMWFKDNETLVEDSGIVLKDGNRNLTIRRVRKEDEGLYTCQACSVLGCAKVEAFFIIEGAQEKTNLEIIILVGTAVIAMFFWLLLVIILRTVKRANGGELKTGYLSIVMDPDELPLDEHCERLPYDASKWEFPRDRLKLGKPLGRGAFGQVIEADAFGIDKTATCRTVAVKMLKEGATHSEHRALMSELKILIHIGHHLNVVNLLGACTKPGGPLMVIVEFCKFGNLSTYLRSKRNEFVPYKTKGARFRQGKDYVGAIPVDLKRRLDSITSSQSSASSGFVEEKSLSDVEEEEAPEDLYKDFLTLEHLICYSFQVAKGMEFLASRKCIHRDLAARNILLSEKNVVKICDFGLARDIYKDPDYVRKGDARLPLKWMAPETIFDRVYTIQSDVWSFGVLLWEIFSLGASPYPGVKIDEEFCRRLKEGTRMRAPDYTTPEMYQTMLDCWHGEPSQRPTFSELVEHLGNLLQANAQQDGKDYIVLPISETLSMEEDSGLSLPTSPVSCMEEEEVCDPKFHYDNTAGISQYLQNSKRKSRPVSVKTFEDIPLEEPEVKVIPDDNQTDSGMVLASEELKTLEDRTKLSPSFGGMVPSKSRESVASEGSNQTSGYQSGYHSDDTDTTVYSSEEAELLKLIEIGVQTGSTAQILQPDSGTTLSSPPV
RET-Gatekeeper mutation (V804L) recombinant protein, sequence (P07949 29-1114 V804L): as the sequence (P07949 29-1114) above, with V776L counted along it

The term IC50 denotes the concentration needed to halve the response being measured. Consider `CCc1cc2c(cc1N1CCC(N3CCOCC3)CC1)C(C)(C)c1[nH]c3cc(C#N)ccc3c1C2=O` [Alectinib, 9-Ethyl-6,6-dimethyl-8-[4-(morpholin-4-yl)piperidin-1-yl]-11-oxo-6,11-dihydro-5H-benzo[b]carbazole-3-carbonitrile, reference compound], for which the IC50 in data set [1] worked out at 112 nM; in data set [2], 308 nM.
With `COc1cc2ncc(-c3cnc(CC(=O)Nc4cc(C(C)(C)C(F)(F)F)on4)c(F)c3)nc2cc1OC` [Compound 229, reference compound], in data set [3] (in vitro), the “inhibitory effect in vitro” value is “strong inhibitory effect”. For the same compound, the IC50 in data set [3] (non-cell system, read-out: Biochemical assay (non-cell system) IC50 (nM) RET-WT) was found to be 1.5 nM; in data set [4], 1.7 nM. Besides, the “suppression of phosphorylated RET (pRET) in Ba/F3-RET-V804M tumors” value in data set [5] (10 mg/kg oral) was “did not suppress”. For the same compound, the exposure in tumors entry in data set [5] (Ba/F3-RET-V804M tumors, 10 mg/kg oral) was “poor exposure in tumors”. Besides, the “Relative phosphorylation of RET (%) in Ba/F3-RET-V804M tumors” value in data set [5] (Dose: 10 mg/kg oral, six hours after administration, relative to vehicle) worked out at 98%.
In the case of `COc1cc2ncc(-c3ccc(CC(=O)Nc4cc(C(C)(C)C(F)(F)F)on4)cc3)nc2cc1OC` [Ex. 8, reference compound], the results for the IC50 in data set [6] (setting [8]) and in data set [7] (comparator compounds) were 9 nM and 7 nM, respectively.
For `COc1cc2cc(-c3ccc(CC(=O)Nc4cc(C(C)(C)C(F)(F)F)on4)cn3)cnc2cc1OC` [Example 1, 2-[6-(6,7-Dimethoxyquinolin-3-yl)pyridin-3-yl]-N-[5-(1,1,1-trifluoro-2-methylpropan-2-yl)-1,2-oxazol-3-yl]acetamide], the IC50 in data set [7] was 18 nM.
Turning to `COc1cc2cc(-c3ccc(CC(=O)Nc4cc(C(C)(C)C(F)(F)F)on4)cn3)cnc2cc1OC` [Example 2, 2-[6-(6,7-Dimethoxyquinolin-3-yl)pyridin-3-yl]-N-[5-(1,1,1-trifluoro-2-methylpropan-2-yl)-1,2-oxazol-3-yl]acetamide Methanesulfonate], in data set [6] (setting [9]), the concentration for half-maximal inhibition (IC50) came out at 828 nM.
In the case of `COc1cc2cc(-c3ccc(CC(=O)Nc4cc(C(C)(C)C(F)(F)F)n[nH]4)cn3)cnc2cc1OC` [Example 6, 2-[6-(6,7-Dimethoxyquinolin-3-yl)pyridin-3-yl]-N-[3-(1,1,1-trifluoro-2-methylpropan-2-yl)-1H-pyrazol-5-yl]acetamide Methanesulfonate], the IC50 came out at 566 nM in data set [6] (KDR, HUVEC cells, VEGF165 50 ng/ml, compound 2 hours, read-out: IC50) and 566 nM in data set [6] (setting [9]).
Regarding `COc1cc2cc(-c3ccc(CC(=O)Nc4cc(C(C)(C)C(F)(F)F)no4)cc3)cnc2cc1OC` [Ref Ex. 1, 2-[4-(6,7-Dimethoxyquinolin-3-yl)phenyl]-N-[3-(1,1,1-trifluoro-2-methylpropan-2-yl)-1,2-oxazol-5-yl]-acetamide, reference compound], the IC50 in data set [6] (cell system, comparator compounds, Form: Mesylate, read-out: IC50 (nM) KDR) came out at 7 nM; in data set [7] (comparator compounds), 8 nM.
With `COc1cc2cc(-c3ccc(CC(=O)Nc4cc(C(C)(C)C(F)(F)F)n[nH]4)cc3)cnc2cc1OC` [Ref Ex. 2, 2-[4-(6,7-Dimethoxyquinolin-3-yl)phenyl]-N-[3-(1,1,1-trifluoro-2-methylpropan-2-yl)-1H-pyrazol-5-yl]-acetamide, reference compound], the IC50 came to 16 nM in data set [6] (setting [8]) and 5 nM in data set [7] (comparator compounds).
For `COc1cc2cc(-c3ccc(CC(=O)Nc4cc(C(C)(C)C(F)(F)F)no4)c(F)c3)cnc2cc1OC` [Ref Ex. 3, 2-[4-(6,7-Dimethoxyquinolin-3-yl)-2-fluorophenyl]-N-[3-(1,1,1-trifluoro-2-methylpropan-2-yl)-1,2-oxazol-5-yl]acetamide, reference compound] the same measures were 6 nM and 8 nM.
